ChEMBL document CHEMBL5665443, “Enzyme Inhibitor Single Concentration assay results for EUbOPEN Chemogenomics Library” (2024)

How the values were obtained:
Details in all cases: Hit No
[1] = molecular target: Methyl-CpG-binding domain protein 4 (Homo sapiens) (UniProt O95243);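 further: MBD4 activity read as fluorescence at 594 nm from cleavage and release of a quenched duplex DNA oligonucleotide, with APE1 coupled to incise the strand and raise turnover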
Description: Inhibition of MBD4 by quantifying inhibition of MBD4-mediated cleavage and dissociation of quenched duplex DNA oligonucleotides, measured as fluorescence at 594 nm. To generate a functional strand incision and increase turn-over this assay is coupled to APE1.

[2] = molecular target: T1, Adenine DNA glycosylase (Homo sapiens) (UniProt Q9UIF7);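 further: human MUTYH activity read as 594 nm fluorescence from cleavage and release of a quenched DNA duplex, coupled with APE1 for strand incision, lower signal meaning inhibition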
T1 sequence (whole entry): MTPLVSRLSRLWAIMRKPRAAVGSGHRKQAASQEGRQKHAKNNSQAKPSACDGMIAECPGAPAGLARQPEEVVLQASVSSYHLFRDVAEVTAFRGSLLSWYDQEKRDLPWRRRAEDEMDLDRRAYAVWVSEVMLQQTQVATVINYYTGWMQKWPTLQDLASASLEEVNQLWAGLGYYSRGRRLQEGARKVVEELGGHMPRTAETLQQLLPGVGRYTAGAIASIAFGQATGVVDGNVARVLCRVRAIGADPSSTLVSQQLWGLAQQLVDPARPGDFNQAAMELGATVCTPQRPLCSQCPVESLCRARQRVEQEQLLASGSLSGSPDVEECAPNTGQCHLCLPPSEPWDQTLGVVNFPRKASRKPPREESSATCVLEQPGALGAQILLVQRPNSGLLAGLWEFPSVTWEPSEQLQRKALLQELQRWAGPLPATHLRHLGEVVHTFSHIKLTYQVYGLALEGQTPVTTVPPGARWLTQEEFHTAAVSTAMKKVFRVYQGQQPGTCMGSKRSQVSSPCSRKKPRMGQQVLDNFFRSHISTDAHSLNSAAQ
Description: Inhibition of MUTYH by quantifying inhibition of MUTYH-mediated cleavage and dissociation of quenched duplex DNA oligonucleotides, measured as fluorescence at 594 nm. To generate a functional strand incision and increase turn-over this assay is coupled to APE1.

[3] = molecular target: T2, Single-strand selective monofunctional uracil DNA glycosylase (Homo sapiens) (UniProt Q53HV7);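 further: enzymatic SMUG1 assay coupled with APE1, reading fluorescence at 594 nm released when a quenched double-stranded DNA oligonucleotide substrate is cleaved and separated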
T2 sequence (whole entry): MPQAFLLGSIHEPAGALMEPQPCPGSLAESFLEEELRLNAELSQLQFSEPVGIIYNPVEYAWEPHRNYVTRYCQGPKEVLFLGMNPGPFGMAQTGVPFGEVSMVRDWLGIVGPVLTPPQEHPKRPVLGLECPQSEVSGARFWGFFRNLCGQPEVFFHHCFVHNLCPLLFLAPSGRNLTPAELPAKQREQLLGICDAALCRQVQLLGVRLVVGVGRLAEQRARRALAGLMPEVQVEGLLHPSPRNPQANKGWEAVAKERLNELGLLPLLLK
Description: Inhibition of SMUG1 by quantifying inhibition of SMUG1-mediated cleavage and dissociation of quenched duplex DNA oligonucleotides, measured as fluorescence at 594 nm. To generate a functional strand incision and increase turn-over this assay is coupled to APE1.

[4] = molecular target: T3, Endonuclease 8-like 2 (Homo sapiens) (UniProt Q969S2);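 further: fluorescence at 594 nm reports NEIL2 cutting and release of a quenched double-stranded DNA oligo substrate, reduced signal read as inhibition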
T3 sequence (whole entry): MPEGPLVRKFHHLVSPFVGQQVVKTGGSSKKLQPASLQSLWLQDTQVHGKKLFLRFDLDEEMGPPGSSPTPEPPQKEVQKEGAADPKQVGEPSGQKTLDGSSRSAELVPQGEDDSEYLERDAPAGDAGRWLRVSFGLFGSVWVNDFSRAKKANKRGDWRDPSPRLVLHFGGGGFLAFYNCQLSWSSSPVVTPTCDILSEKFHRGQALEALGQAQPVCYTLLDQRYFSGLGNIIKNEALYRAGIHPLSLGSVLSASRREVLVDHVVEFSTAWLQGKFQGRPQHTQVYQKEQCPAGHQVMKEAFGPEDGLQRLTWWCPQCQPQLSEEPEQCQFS
Description: Inhibition of NEIL2 by quantifying inhibition of NEIL2-mediated cleavage and dissociation of quenched duplex DNA oligonucleotides, measured as fluorescence at 594 nm.

[5] = molecular target: Uracil-DNA glycosylase (Homo sapiens) (UniProt P13051);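 further: UNG excision on a quenched double-stranded DNA oligo probe, with APE1 added for strand incision and turnover, read as fluorescence at 594 nm as strands separate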
Sequence of Uracil-DNA glycosylase (Homo sapiens) (P13051 whole entry): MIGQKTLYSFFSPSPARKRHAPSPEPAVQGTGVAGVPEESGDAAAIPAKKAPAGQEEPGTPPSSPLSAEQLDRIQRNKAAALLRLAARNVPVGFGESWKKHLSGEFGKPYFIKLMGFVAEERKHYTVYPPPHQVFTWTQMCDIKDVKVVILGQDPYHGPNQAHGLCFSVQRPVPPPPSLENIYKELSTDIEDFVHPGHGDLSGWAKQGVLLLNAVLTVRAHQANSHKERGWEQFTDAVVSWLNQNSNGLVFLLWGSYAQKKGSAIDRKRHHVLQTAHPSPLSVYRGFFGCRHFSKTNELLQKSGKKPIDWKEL
Description: Inhibition of UNG by quantifying inhibition of UNG-mediated cleavage and dissociation of quenched duplex DNA oligonucleotides, measured as fluorescence at 594 nm. To generate a functional strand incision and increase turn-over this assay is coupled to APE1.

[6] = molecular target: G/T mismatch-specific thymine DNA glycosylase (Homo sapiens) (UniProt Q13569);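 further: human TDG cleavage of quenched duplex DNA oligonucleotides coupled to APE1, strand release read as fluorescence at 594 nm, inhibition of TDG activity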
Sequence of G/T mismatch-specific thymine DNA glycosylase (Homo sapiens) (Q13569 whole entry): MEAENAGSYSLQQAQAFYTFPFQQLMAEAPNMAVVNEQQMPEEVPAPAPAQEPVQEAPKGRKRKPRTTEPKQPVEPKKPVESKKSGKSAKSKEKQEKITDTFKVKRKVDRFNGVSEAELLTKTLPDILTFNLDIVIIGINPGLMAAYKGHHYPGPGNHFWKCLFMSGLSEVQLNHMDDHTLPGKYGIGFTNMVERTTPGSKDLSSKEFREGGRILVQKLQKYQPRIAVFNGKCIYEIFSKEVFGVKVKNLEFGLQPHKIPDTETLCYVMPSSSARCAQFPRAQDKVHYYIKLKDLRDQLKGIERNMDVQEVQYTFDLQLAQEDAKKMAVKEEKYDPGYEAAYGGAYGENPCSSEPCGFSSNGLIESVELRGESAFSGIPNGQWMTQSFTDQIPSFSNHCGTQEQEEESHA
Description: Inhibition of TDG by quantifying inhibition of TDG-mediated cleavage and dissociation of quenched duplex DNA oligonucleotides, measured as fluorescence at 594 nm. To generate a functional strand incision and increase turn-over this assay is coupled to APE1.

[7] = molecular target: N-glycosylase/DNA lyase (Homo sapiens) (UniProt O15527);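 further: OGG1 cleavage of a quenched duplex DNA oligonucleotide, coupled to APE1 for strand incision, read as fluorescence at 594 nm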
Sequence of N-glycosylase/DNA lyase (Homo sapiens) (O15527 whole entry): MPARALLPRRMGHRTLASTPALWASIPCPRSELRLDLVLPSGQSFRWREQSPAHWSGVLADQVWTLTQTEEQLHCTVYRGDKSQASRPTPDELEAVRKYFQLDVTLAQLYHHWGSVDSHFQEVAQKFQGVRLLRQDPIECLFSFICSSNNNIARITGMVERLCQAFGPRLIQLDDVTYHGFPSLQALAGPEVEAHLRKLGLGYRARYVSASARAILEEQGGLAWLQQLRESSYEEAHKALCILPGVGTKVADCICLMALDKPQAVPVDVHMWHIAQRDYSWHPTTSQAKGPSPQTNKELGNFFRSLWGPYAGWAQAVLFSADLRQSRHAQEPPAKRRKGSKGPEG
Description: Inhibition of OGG1 by quantifying inhibition of OGG1-mediated cleavage and dissociation of quenched duplex DNA oligonucleotides, measured as fluorescence at 594 nm. To generate a functional strand incision and increase turn-over this assay is coupled to APE1.

[8] = molecular target: Endonuclease 8-like 1 (Homo sapiens) (UniProt Q96FI4);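 further: fluorescence at 594 nm from quenched duplex DNA oligonucleotides released by NEIL1 cleavage and strand separation, reported as reduction of this enzyme activity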
Sequence of Endonuclease 8-like 1 (Homo sapiens) (Q96FI4 whole entry): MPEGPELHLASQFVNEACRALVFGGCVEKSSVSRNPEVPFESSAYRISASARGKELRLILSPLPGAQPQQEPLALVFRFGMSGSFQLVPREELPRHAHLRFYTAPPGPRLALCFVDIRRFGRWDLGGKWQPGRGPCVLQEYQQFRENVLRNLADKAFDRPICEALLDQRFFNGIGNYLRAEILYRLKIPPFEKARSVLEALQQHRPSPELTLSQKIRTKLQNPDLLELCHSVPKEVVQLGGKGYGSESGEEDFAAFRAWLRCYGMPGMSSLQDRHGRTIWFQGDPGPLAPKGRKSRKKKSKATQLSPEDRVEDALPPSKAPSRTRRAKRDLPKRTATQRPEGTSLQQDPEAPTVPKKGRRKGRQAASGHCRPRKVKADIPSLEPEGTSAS
Description: Inhibition of NEIL1 by quantifying inhibition of NEIL1-mediated cleavage and dissociation of quenched duplex DNA oligonucleotides, measured as fluorescence at 594 nm.

[9] = Compound Concentration 10.0 uM, tested as the 2H-labelled form

Sequence of Methyl-CpG-binding domain protein 4 (Homo sapiens) (O95243 whole entry, the tested form may be a part): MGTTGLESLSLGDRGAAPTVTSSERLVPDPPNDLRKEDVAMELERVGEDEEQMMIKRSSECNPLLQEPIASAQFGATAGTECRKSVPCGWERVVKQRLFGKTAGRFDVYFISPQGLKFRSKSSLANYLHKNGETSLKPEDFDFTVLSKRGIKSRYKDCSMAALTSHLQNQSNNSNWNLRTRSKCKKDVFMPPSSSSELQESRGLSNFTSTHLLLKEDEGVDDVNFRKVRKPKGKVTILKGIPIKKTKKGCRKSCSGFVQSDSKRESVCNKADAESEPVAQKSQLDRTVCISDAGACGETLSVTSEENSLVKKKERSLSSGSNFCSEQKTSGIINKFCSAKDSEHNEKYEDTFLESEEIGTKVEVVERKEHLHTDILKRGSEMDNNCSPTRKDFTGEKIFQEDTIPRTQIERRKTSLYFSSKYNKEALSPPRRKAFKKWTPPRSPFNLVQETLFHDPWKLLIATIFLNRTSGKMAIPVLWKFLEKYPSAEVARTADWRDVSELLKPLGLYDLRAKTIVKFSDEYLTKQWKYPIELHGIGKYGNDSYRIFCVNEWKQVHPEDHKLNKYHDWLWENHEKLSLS

inhibition ([1]; Compound Concentration 1.0 uM) [%] | inhibition ([2]; Compound Concentration 1.0 uM) [%] | inhibition ([3]; Compound Concentration 1.0 uM) [%] | inhibition ([5]; Compound Concentration 1.0 uM) [%] | inhibition ([6]; Compound Concentration 1.0 uM) [%] | inhibition ([1]; Compound Concentration 10.0 uM) [%] | inhibition ([2]; Compound Concentration 10.0 uM) [%] | inhibition ([3]; Compound Concentration 10.0 uM) [%] | inhibition ([4]; Compound Concentration 10.0 uM) [%] | inhibition ([8]; Compound Concentration 10.0 uM) [%] | inhibition ([6]; Compound Concentration 10.0 uM) [%] | inhibition ([7]; Compound Concentration 10.0 uM) [%] | inhibition ([5]; Compound Concentration 10.0 uM) [%] | Compound | also measured
– | – | – | – | – | -8.74 | -1.13 | -3.76 | -2.23 | -5.54 | -4.78 | 0.771 | – | Cc1c(OCc2cccc(-c3ccc(C(=O)O)cc3)c2)cc2c(c1C)C(=O)C(C1CCCC1)C2 (configuration not stated) | –
– | – | – | – | – | 53.8 | -3.16 | 11.2 | – | – | 46 | -10 | 2.31 | CN([C@@H]1CCc2c(CC(=O)O)c3cc(S(C)(=O)=O)ccc3n2C1)S(=O)(=O)c1ccc(F)cc1 | –
– | – | – | – | – | 29.7 | 3.93 | 21.2 | -3.37 | – | 70.5 | 4.45 | 3.78 | C[C@@H](NC(=O)Nc1cc2[nH]ncc2c(CO)n1)c1ccccc1 | –
31.7 | 26.6 | 21.7 | 3.74 | 71.4 | – | – | – | – | – | – | – | – | NC(=O)c1ccc2nc(-c3ccc(C4(N)CCC4)cc3)c(-c3ccccc3)n2n1 | inhibition ([4]; Compound Concentration 1.0 uM): -7.61%; inhibition ([7]; Compound Concentration 1.0 uM): 4.13%
– | – | – | – | – | -9.91 | -2.48 | 21.8 | -8.65 | -1.18 | 56.8 | – | -2.02 | CCC(=O)Nc1cccc(Oc2nc(Nc3ccc(N4CCN(C)CC4)cc3OC)ncc2Cl)c1 | –
– | – | – | – | – | 62.4 | 8.31 | 9.01 | 8.7 | – | 41.7 | -8.13 | -2.88 | CCC(=O)N[C@H]1CC[C@@H](C(=O)N(C)c2ccc(-c3nc4ccccc4o3)cc2)C1 | –
62 | -1.58 | 13.8 | 2.12 | 47.1 | – | – | – | – | – | – | – | – | O=C(Cc1ccccc1)Nc1nnc(N2C[C@H]3C[C@@H]2CN3c2cccnn2)s1 | inhibition ([8]; Compound Concentration 1.0 uM): 2.13%; inhibition ([7]; Compound Concentration 1.0 uM): 0.672%
– | – | – | – | – | 12.9 | -6.43 | 13.4 | 13.7 | 2.12 | 38.9 | – | 2.73 | CCc1cccc(CC)c1NC(=O)c1nn(C)c2c1CCc1cnc(Nc3ccc(C(=O)NC4CCN(C)CC4)cc3OC(F)(F)F)nc1-2 | –
– | – | – | – | – | -8.04 | 23.1 | 12.4 | 24.7 | 18.5 | 31.8 | – | -2.15 | NC[C@@H]1O[C@H](C23CC4CC(CC(C4)C2)C3)Cc2c1ccc(O)c2O | –
-6.11 | 0.673 | 11.3 | 1.59 | 25.2 | – | – | – | – | – | – | – | – | CC(C)c1cc(Nc2nc(N3CCC[C@H](N)C3)ncc2C(N)=O)cc(C(C)C)n1 | inhibition ([4]; Compound Concentration 1.0 uM): 11.5%; inhibition ([8]; Compound Concentration 1.0 uM): -3.69%
– | – | – | – | – | 63.3 | -2.62 | 18.1 | – | – | 97.9 | -7.39 | -1.71 | O=C(Nc1cccnn1)N1CC(C/C=C/c2cncc(Oc3ccc(C(F)(F)F)cn3)n2)C1 | –

Continued, compound first:

Compound | inhibition ([1]; Compound Concentration 1.0 uM) [%] | inhibition ([2]; Compound Concentration 1.0 uM) [%] | inhibition ([3]; Compound Concentration 1.0 uM) [%] | inhibition ([5]; Compound Concentration 1.0 uM) [%] | inhibition ([6]; Compound Concentration 1.0 uM) [%] | inhibition ([1]; Compound Concentration 10.0 uM) [%] | inhibition ([2]; Compound Concentration 10.0 uM) [%] | inhibition ([3]; Compound Concentration 10.0 uM) [%] | inhibition ([4]; Compound Concentration 10.0 uM) [%] | inhibition ([8]; Compound Concentration 10.0 uM) [%] | inhibition ([6]; Compound Concentration 10.0 uM) [%] | inhibition ([7]; Compound Concentration 10.0 uM) [%] | inhibition ([5]; Compound Concentration 10.0 uM) [%] | also measured
Cc1nc(-c2cn3c(n2)-c2ccc(-c4cnn(C(C)(C)C(N)=O)c4)cc2OCC3)n(C(C)C)n1 | -2.34 | 3.04 | 19.2 | 0.537 | 60 | – | – | – | – | – | – | – | – | inhibition ([4]; Compound Concentration 1.0 uM): -7.57%; inhibition ([7]; Compound Concentration 1.0 uM): 1.09%
C[C@@H]1CN(c2ncc(Cl)c(Nc3ccc4c(c3)n(CCC(C)(C)O)c(=O)n4C)n2)C[C@H](C)C1(F)F | – | – | – | – | – | 66.3 | 2.19 | 18 | -9.67 | – | 57.5 | -2.08 | 9.4 | –
Cc1c(NC(=O)c2cc(C(N)=O)nc3cc(F)ccc23)c(C(F)(F)F)nn1Cc1ccc(C(C)(C)C)cc1 | 59.5 | 11.6 | 16.4 | 0.116 | 55.8 | – | – | – | – | – | – | – | – | inhibition ([8]; Compound Concentration 1.0 uM): -8.32%; inhibition ([7]; Compound Concentration 1.0 uM): -8.67%
CCCn1c(=O)c2[nH]c(-c3cnn(Cc4cccc(C(F)(F)F)c4)c3)nc2n(CC)c1=O | – | – | – | – | – | -7.87 | -1.26 | 4.62 | -0.234 | -6.43 | -4.73 | -1.7 | – | –
COc1cc2c(cc1CC=C(C)C)C(=O)C[C@@H](c1ccc(O)cc1)O2 | – | – | – | – | – | 61.9 | -5.24 | 19.4 | -5.59 | – | 49.3 | 19.1 | 0.826 | –
Cc1ccc(Cn2nc(C(=O)N[C@@H]3C(C)(C)[C@@H]4CC[C@@]3(C)C4)cc2-c2ccc(Cl)c(C)c2)cc1 | – | – | – | – | – | -2.75 | -0.363 | -0.0818 | 7 | 10.9 | 21.7 | -0.971 | – | –
CC(C)(O)c1cncc(-c2nc3ccc(F)cc3n2C2CC2)c1 | – | – | – | – | – | 59.6 | 11.5 | 1.08 | – | – | 50.2 | 8.25 | -3.32 | –
O=C(NCc1ncc(C(F)(F)F)cc1Cl)c1ccc2c(c1)C1(CCS(=O)(=O)CC1)[C@H](C1CC1)N2S(=O)(=O)c1ccc(F)cc1 | 59.6 | 2.13 | -4 | -0.35 | 38.8 | – | – | – | – | – | – | – | – | inhibition ([4]; Compound Concentration 1.0 uM): -0.744%; inhibition ([7]; Compound Concentration 1.0 uM): -6.07%
Cc1cnc(-c2cc(Cl)ccc2F)cc1-n1c(=O)n(CC(N)=O)c2ccccc21 | – | – | – | – | – | 36.9 | -6.05 | 7.03 | – | -5.78 | 23.2 | -7.14 | 1.32 | –
CCS(=O)(=O)c1cc2cc(C[C@@](O)(CC(C)(C)c3ccc(F)cc3C(N)=O)C(F)(F)F)[nH]c2cn1 | 66.5 | -2.67 | 5.35 | -1.88 | 28.1 | – | – | – | – | – | – | – | – | inhibition ([4]; Compound Concentration 1.0 uM): -6.61%; inhibition ([7]; Compound Concentration 1.0 uM): -3.12%
COc1cc2c(CCNC(C)=O)c[nH]c2cc1Cl | – | – | – | – | – | 5.14 | -5.23 | 0.936 | 0.0156 | -9.99 | 4.32 | -6.18 | – | –
Clc1cccc(COc2cncc(N3CCNCC3)n2)c1 | – | – | – | – | – | -8.79 | 5.27 | 1.71 | 1.26 | 5.13 | -5.02 | – | -8.45 | –
C(#Cc1cccc(CN2CCOCC2)c1)CCN1CCCCC1 | – | – | – | – | – | 0.0339 | -3.69 | -7.54 | -2.73 | 11.2 | -1.72 | -4.46 | – | –
N#Cc1ccc(Nc2ccc3[nH]c(=O)[nH]c3c2)c(Cl)c1 | 63.1 | 7.43 | 11.9 | 1.6 | 38.3 | – | – | – | – | – | – | – | – | inhibition ([7]; Compound Concentration 1.0 uM): -3.21%
Cn1nc(C(F)(F)F)cc1-c1cnc(N2CCc3cc(S(=O)(=O)Nc4c(F)cc(Cl)cc4F)cc(N4CCCC4=O)c32)nc1 | – | – | – | – | – | 59.5 | 17.9 | 9.91 | 4.87 | – | 53.9 | 12.6 | 1.37 | –
CC1(C)Cn2nc(-c3ccc(F)cn3)c(-c3ccnc4[nH]ncc34)c2CO1 | – | – | – | – | – | – | – | – | – | – | – | – | – | inhibition [1, 9]: 55.2%; inhibition [2, 9]: -5.13%; inhibition [3, 9]: 12.7%; inhibition [4, 9]: -8.4%; inhibition [5, 9]: 0.65%; inhibition [6, 9]: 99.8%; inhibition [7, 9]: -6.31%
O=C(Nc1ccc(-c2ccnc(Nc3ccc(N4CCOCC4)cc3)n2)cc1)[C@@H]1CCCN1 | -0.777 | 14.9 | 24.9 | 3.18 | 58.2 | – | – | – | – | – | – | – | – | inhibition ([8]; Compound Concentration 1.0 uM): 5.95%; inhibition ([7]; Compound Concentration 1.0 uM): 1.3%
